{
  "source": "paper PMC8706783",
  "about": "(Pharmaceutics, 2021)",
  "key": {"CYP2C8": {"biological_target": "T1, CYP2C8 (Homo sapiens, UniProt P10632)", "T1 construct": "tissue Xenotech LLC; host or cells: human liver microsomes, mixed-gender 50 donor pool", "T1 sequence (P10632 whole entry)": "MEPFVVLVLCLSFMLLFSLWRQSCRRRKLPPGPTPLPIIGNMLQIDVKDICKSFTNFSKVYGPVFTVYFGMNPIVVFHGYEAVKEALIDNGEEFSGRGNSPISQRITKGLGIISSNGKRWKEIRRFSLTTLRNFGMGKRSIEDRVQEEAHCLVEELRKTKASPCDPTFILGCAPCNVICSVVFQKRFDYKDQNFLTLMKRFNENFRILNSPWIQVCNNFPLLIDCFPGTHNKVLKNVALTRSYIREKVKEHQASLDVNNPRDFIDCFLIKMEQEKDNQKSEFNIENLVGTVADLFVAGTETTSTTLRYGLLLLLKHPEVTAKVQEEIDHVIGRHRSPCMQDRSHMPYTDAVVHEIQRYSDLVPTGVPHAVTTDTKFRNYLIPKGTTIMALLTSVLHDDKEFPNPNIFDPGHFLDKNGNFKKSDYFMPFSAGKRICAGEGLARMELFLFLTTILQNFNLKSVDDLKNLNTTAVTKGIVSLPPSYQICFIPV", "experiment": "Enzyme inhibition assay, CYP2C8", "assay_type": "in vitro ADME"}, "UGT2B7": {"biological_target": "T2, UGT2B7 (Homo sapiens, UniProt P16662)", "T2 sequence (P16662 24-529)": "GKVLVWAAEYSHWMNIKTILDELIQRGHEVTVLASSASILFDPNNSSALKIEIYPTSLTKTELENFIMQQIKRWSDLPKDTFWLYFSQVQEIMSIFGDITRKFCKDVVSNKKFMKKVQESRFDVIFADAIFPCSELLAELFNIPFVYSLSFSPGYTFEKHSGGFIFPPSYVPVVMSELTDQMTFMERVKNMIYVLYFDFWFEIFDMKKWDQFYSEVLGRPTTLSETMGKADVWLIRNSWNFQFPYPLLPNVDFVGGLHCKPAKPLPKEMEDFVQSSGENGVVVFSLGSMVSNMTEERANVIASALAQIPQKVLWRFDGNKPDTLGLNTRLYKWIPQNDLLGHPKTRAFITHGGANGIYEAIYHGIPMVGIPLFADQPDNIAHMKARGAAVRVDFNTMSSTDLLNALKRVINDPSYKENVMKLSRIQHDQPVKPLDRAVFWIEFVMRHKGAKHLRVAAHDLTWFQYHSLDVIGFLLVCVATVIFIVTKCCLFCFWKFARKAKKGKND", "experiment": "Enzyme inhibition assay, UGT2B7", "assay_type": "in vitro ADME", "design": "from tissue", "conditions": "HLM; UGT2B7 zidovudine glucuronidation"}},
  "data": [
    {"smiles": "Cc1cc(C)c(Nc2ccnc(Nc3ccc(C#N)cc3)n2)c(C)c1", "note": "[DPV, Dapivirine]", "values": [
      {"measurement": "IC50", "setting": "CYP2C8", "value": 1.41, "unit": "µM"},
      {"measurement": "IC50", "setting": "UGT2B7", "value": 17.2, "unit": "µM"}
    ]}
  ]
}
